Experimental data from ChEMBL document CHEMBL1909046, “DrugMatrix in vitro pharmacology data”.

What was measured:
[1] = target: T1, Alpha-2A adrenergic receptor (Homo sapiens, UniProt P08913); format: cell membranes, Sf9, Membrane; note: in other assays of this panel Not Active means under 50% inhibition at 10 µM
T1 sequence (P08913 whole entry): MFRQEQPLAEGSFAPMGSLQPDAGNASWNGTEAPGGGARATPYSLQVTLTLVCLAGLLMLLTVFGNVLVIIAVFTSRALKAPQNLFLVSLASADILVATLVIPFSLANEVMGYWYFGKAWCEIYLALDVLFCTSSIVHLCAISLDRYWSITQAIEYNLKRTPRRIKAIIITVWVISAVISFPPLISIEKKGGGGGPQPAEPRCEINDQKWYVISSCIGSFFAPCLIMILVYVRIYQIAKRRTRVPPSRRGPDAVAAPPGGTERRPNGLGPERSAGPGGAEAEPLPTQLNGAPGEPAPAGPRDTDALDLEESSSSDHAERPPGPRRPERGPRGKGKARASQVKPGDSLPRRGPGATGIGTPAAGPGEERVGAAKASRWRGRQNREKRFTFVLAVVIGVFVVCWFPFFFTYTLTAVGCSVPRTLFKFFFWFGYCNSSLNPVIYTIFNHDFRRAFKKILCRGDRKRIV

D(1A) dopamine receptor = D(1A) dopamine receptor (Homo sapiens, UniProt P21728); experiment: DRUGMATRIX: Dopamine D1 radioligand binding (ligand: [3H] SCH-23390); format: cell membranes, CHO, Membrane; settings: cho; Not Active = under 50% inhibition at 10 µM
Chain of D(1A) dopamine receptor (P21728 whole entry): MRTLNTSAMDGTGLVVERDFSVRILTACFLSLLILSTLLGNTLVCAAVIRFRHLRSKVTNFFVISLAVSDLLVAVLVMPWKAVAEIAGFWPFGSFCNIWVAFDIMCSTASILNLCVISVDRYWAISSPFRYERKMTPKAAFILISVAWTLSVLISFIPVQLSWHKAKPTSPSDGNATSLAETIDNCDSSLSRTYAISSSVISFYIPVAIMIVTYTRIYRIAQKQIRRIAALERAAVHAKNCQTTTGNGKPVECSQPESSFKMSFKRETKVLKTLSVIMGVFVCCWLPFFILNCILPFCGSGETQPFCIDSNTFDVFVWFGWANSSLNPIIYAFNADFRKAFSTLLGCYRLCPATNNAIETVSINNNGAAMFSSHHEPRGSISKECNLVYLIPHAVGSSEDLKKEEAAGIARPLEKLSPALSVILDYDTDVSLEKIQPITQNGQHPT

[2] = target: T2, 3-hydroxy-3-methylglutaryl-coenzyme A reductase (Homo sapiens, UniProt P04035); design: species or system Escherichia coli;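 note: enzyme inhibition assay of HMG-CoA reductase using radiolabeled [14C]HMG-CoA as substrate; in other assays of this panel Not Active means under 50% inhibition at 10 µM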
T2 sequence (P04035 whole entry): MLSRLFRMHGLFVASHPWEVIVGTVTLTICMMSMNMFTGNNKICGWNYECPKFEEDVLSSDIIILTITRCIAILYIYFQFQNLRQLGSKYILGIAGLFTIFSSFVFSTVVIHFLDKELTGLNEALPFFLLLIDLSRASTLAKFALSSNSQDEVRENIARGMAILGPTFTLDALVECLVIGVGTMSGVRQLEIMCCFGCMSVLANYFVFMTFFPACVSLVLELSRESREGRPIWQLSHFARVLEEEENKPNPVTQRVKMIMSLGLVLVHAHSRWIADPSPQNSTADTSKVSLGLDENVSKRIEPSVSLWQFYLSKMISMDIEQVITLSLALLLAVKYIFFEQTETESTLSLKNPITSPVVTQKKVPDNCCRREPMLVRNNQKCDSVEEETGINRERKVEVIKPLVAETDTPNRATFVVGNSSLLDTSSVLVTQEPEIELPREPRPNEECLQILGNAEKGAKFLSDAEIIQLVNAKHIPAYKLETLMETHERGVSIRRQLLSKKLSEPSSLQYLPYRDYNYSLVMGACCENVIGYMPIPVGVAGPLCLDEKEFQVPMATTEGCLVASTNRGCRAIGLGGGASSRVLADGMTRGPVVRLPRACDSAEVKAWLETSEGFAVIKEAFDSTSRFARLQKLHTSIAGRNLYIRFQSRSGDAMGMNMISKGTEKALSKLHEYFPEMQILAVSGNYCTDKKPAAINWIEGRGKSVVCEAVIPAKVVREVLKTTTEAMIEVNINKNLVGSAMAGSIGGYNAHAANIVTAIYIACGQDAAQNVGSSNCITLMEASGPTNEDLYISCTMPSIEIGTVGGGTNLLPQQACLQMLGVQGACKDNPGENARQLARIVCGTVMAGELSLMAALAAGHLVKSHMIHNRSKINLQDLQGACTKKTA

[3] = target: Matrix metalloproteinase-9 (Homo sapiens, UniProt P14780); experiment: biochemical; format: cell-based;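 note: inhibition of isolated MMP-9 enzyme activity toward a synthetic peptide substrate, from the DrugMatrix protease screening panel; in other assays of this panel Not Active means under 50% inhibition at 10 µM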
Chain of Matrix metalloproteinase-9 (P14780 whole entry): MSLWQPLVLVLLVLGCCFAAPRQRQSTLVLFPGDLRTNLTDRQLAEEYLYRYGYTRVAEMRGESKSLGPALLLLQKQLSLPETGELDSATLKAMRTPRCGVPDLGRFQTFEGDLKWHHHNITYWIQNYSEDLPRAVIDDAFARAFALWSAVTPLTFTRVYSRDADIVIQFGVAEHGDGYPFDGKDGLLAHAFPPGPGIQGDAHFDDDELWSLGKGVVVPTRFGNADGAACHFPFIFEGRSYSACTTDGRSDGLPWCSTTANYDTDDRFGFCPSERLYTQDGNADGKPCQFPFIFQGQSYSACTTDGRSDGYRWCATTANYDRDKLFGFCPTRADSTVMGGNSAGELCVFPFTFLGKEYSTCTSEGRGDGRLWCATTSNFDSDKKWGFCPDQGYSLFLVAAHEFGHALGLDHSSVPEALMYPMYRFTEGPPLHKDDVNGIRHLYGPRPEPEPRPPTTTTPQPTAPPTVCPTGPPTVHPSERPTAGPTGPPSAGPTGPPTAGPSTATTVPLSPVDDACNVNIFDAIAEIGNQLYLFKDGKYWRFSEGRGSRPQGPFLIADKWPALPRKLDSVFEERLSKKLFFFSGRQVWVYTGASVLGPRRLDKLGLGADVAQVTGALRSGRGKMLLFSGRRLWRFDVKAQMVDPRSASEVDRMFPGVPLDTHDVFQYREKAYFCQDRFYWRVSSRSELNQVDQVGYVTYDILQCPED

[4] = target: Protein phosphatase 3 catalytic subunit alpha (Homo sapiens, UniProt Q08209); design: species or system Escherichia coli;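 note: inhibition of calcineurin (PP2B) enzyme activity, measured with DiFMUP as the substrate; in other assays of this panel Not Active means under 50% inhibition at 10 µM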
[5] = target: Tyrosine-protein kinase Lck (Homo sapiens, UniProt P06239); experiment: DRUGMATRIX: Protein Tyrosine Kinase, LCK enzyme inhibition (substrate: Poly(Glu:Tyr)); format: cell-based, Insect cells; settings: Not Active = under 50% inhibition at 10 µM
Chain of Tyrosine-protein kinase Lck (P06239 whole entry): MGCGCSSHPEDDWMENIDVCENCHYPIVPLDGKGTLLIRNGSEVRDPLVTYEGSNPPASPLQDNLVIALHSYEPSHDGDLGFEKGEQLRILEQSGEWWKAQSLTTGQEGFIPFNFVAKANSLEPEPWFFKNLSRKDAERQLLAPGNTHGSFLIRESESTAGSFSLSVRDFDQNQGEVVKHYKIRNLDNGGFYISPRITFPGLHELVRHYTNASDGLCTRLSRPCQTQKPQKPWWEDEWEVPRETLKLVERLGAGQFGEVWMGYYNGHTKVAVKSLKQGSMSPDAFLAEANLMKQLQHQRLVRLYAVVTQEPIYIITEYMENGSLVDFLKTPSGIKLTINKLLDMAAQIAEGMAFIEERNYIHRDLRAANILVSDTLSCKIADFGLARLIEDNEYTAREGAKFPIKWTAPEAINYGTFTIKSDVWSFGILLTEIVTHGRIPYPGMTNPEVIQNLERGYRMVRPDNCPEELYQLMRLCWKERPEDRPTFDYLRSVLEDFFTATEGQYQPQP

Estrogen receptor beta = Estrogen receptor beta (Homo sapiens, UniProt Q92731); settings: sf9; note: in other assays of this panel Not Active means under 50% inhibition at 10 µM
Chain of Estrogen receptor beta (Q92731 whole entry): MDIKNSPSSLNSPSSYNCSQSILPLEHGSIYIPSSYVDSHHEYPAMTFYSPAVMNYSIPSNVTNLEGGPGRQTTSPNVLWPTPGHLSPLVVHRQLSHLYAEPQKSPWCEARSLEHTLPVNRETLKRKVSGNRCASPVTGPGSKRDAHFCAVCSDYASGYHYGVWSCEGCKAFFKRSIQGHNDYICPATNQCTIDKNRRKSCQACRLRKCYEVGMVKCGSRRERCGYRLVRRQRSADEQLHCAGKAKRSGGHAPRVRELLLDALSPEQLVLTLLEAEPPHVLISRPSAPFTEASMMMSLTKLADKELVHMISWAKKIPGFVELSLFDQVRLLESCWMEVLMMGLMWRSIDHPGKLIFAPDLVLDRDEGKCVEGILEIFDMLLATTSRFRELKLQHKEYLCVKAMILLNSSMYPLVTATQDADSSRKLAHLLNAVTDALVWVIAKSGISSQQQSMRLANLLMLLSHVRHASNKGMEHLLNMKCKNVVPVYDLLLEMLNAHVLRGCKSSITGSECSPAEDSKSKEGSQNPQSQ

Nc1nc2c(c(=O)[nH]1)N(C=O)C(CNc1ccc(C(=O)N[C@@H](CCC(=O)O)C(=O)O)cc1)CN2 (some centres not stated) [LEUCOVORIN]
Not Active: IC50 ([1]; sf9) | IC50 (D(1A) dopamine receptor) | IC50 [2] | IC50 [3] | IC50 [4] | IC50 ([5]; insect cells) | IC50 (Estrogen receptor beta)

C[C@@H](O)[C@H]1C(=O)N2C(C(=O)O)=C(S[C@@H]3CN[C@H](C(=O)N(C)C)C3)[C@H](C)[C@H]12 [MEROPENEM]
Not Active: IC50 ([1]; sf9) | IC50 (D(1A) dopamine receptor) | IC50 [2] | IC50 [3] | IC50 [4] | IC50 ([5]; insect cells) | IC50 (Estrogen receptor beta)

COc1cc(N)nc2[nH]c(-c3ccc(F)cc3)c(-c3ccncc3)c12
Not Active: IC50 ([1]; sf9) | IC50 (D(1A) dopamine receptor) | IC50 [2] | IC50 [3] | IC50 [4] | IC50 (Estrogen receptor beta)

THIMEROSAL
Not Active: IC50 (D(1A) dopamine receptor) | Ki (D(1A) dopamine receptor) | IC50 [2] | Ki [2] | IC50 [3] | Ki [3] | IC50 [4] | Ki [4] | IC50 ([5]; insect cells) | Ki ([5]; insect cells) | IC50 (Estrogen receptor beta) | Ki (Estrogen receptor beta)
0.532 µM: IC50 ([1]; sf9, read-out: IC50)
0.2 µM: Ki ([1]; sf9, read-out: Ki)

C[C@]12CC[C@H]3[C@@H](CCC4=CC(=O)CC[C@@]43C)[C@@H]1CC[C@@H]2O [TESTOSTERONE]
Not Active: IC50 ([1]; sf9) | IC50 (D(1A) dopamine receptor) | IC50 [2] | IC50 [3] | IC50 [4] | IC50 ([5]; insect cells) | IC50 (Estrogen receptor beta)

CNS(=O)(=O)Cc1ccc2[nH]cc(CCN(C)C)c2c1
Not Active: IC50 ([1]; sf9) | IC50 (D(1A) dopamine receptor) | IC50 [2] | IC50 [3] | IC50 [4] | IC50 ([5]; insect cells) | IC50 (Estrogen receptor beta)

CO[C@H]1C[C@@H]2CC[C@@H](C)[C@@](O)(O2)C(=O)C(=O)N2CCCC[C@H]2C(=O)O[C@H]([C@H](C)C[C@@H]2CC[C@@H](O)[C@H](OC)C2)CC(=O)[C@H](C)/C=C(\C)[C@@H](O)[C@@H](OC)C(=O)[C@H](C)C[C@H](C)/C=C/C=C/C=C/1C [SIROLIMUS]
Not Active: IC50 ([1]; sf9) | IC50 (D(1A) dopamine receptor) | IC50 [2] | IC50 [3] | IC50 [4] | IC50 ([5]; insect cells) | IC50 (Estrogen receptor beta)

CN(CCOc1ccc(CC2SC(=O)NC2=O)cc1)c1ccccn1 (configuration not stated) [ROSIGLITAZONE]
Not Active: IC50 ([1]; sf9) | IC50 (D(1A) dopamine receptor) | IC50 [2] | IC50 [3] | IC50 [4] | IC50 ([5]; insect cells) | IC50 (Estrogen receptor beta)

COc1ccc(CN2CCNCC2)c(OC)c1OC [TRIMETAZIDINE]
Not Active: IC50 ([1]; sf9) | IC50 (D(1A) dopamine receptor) | IC50 [2] | IC50 [3] | IC50 [4] | IC50 ([5]; insect cells) | IC50 (Estrogen receptor beta)

COc1cc(C(=O)NS(=O)(=O)c2ccccc2C)ccc1Cc1cn(C)c2ccc(NC(=O)OC3CCCC3)cc12 [ZAFIRLUKAST]
Not Active: IC50 ([1]; sf9) | IC50 (D(1A) dopamine receptor) | IC50 [2] | IC50 [3] | IC50 [4] | IC50 ([5]; insect cells) | IC50 (Estrogen receptor beta)

CC(=O)Nc1nnc(S(N)(=O)=O)s1 [ACETAZOLAMIDE]
Not Active: IC50 ([1]; sf9) | IC50 [2] | IC50 [3] | IC50 [4] | IC50 ([5]; insect cells) | IC50 (Estrogen receptor beta)

CCN(CC)CC#CCOC(=O)C(O)(c1ccccc1)C1CCCCC1 (configuration not stated) [OXYBUTYNIN]
Not Active: IC50 ([1]; sf9) | IC50 [2] | IC50 [3] | IC50 [4] | IC50 ([5]; insect cells) | IC50 (Estrogen receptor beta)

COc1ccc(/C=C/C(=O)Nc2ccccc2C(=O)O)cc1OC
Not Active: IC50 ([1]; sf9) | IC50 (D(1A) dopamine receptor) | IC50 [2] | IC50 [3] | IC50 [4] | IC50 ([5]; insect cells) | IC50 (Estrogen receptor beta)

C#CCN(C)[C@H](C)Cc1ccccc1 [SELEGILINE]
0.674 µM: Ki ([1]; read-out: Ki)
Not Active: IC50 (D(1A) dopamine receptor) | IC50 [2] | IC50 [3] | IC50 [4] | IC50 ([5]; insect cells) | IC50 (Estrogen receptor beta)
1.8 µM: IC50 ([1]; read-out: IC50)

Nc1ccc(S(=O)(=O)Nc2ncccn2)cc1 [SULFADIAZINE]
Not Active: IC50 ([1]; sf9) | IC50 (D(1A) dopamine receptor) | IC50 [2] | IC50 [3] | IC50 [4] | IC50 ([5]; insect cells) | IC50 (Estrogen receptor beta)

C[C@@H]1C[C@H]2[C@@H]3CCC4=CC(=O)C=C[C@]4(C)C3=CC[C@]2(C)[C@H]1C(=O)CN1CCN(c2cc(N3CCCC3)nc(N3CCCC3)n2)CC1 [TIRILAZAD]
Not Active: IC50 ([1]; sf9) | IC50 (D(1A) dopamine receptor) | IC50 [2] | IC50 [3] | IC50 [4] | IC50 (Estrogen receptor beta)
15.8 µM: IC50 ([5]; read-out: IC50)

COc1ncnc(NS(=O)(=O)c2ccc(N)cc2)c1OC [SULFADOXINE]
Not Active: IC50 ([1]; sf9) | IC50 (D(1A) dopamine receptor) | IC50 [2] | IC50 [3] | IC50 [4] | IC50 ([5]; insect cells) | IC50 (Estrogen receptor beta)

STANNOUS FLUORIDE
Not Active: IC50 ([1]; sf9) | Ki ([1]; sf9) | IC50 (D(1A) dopamine receptor) | Ki (D(1A) dopamine receptor) | IC50 [2] | Ki [2] | IC50 [3] | Ki [3] | IC50 [4] | Ki [4] | IC50 ([5]; insect cells) | Ki ([5]; insect cells) | IC50 (Estrogen receptor beta) | Ki (Estrogen receptor beta)

CC1=C(CC(=O)O)c2cc(F)ccc2/C1=C\c1ccc(S(C)(=O)=O)cc1 [EXISULIND]
Not Active: IC50 ([1]; sf9) | IC50 (D(1A) dopamine receptor) | IC50 [2] | IC50 [3] | IC50 [4] | IC50 ([5]; insect cells) | IC50 (Estrogen receptor beta)

NC[C@H]1O[C@H](O[C@H]2[C@H](O)[C@@H](O[C@H]3O[C@H](CO)[C@@H](O)[C@H](N)[C@H]3O)[C@H](N)C[C@@H]2N)[C@H](N)C[C@@H]1O [TOBRAMYCIN]
Not Active: IC50 ([1]; sf9) | IC50 (D(1A) dopamine receptor) | IC50 [2] | IC50 [3] | IC50 [4] | IC50 ([5]; insect cells) | IC50 (Estrogen receptor beta)
